{"source": "patent US8232267B2", "about": "“Porphyrin catalysts and methods of use thereof” (The Trustees of Princeton University, priority 2006, dated 2012)", "test": "Stopped-flow spectrophotometric analysis of kinetics of peroxynitrite decomposition", "type": "biochemical", "settings": "100 mM phosphate buffer pH 7.4, 25° C.", "from_the_text": "Peroxynitrite was synthesized from hydrogen peroxide and nitrous acid using an sp250i syringe pump by modification of published procedures. See, Shimanovich, R.; Groves, J. T., Mechanisms of Peroxynitrite Decomposition Catalyzed by FeTMPS, a Bioactive Sulfonated Iron Porphyrin. Archives of Biochemistry and Biophysics 2001, 387, (2), 307-317; Saha, A.; Goldstein, S.; Cabelli, D.; Czapski, G., Determination of optimal conditions for synthesis of peroxynitrite by mixing acidified hydrogen peroxide with nitrite. Free Radical Biology & Medicine 1998, 24, (4), 653-659; and Uppu, R. M.; Squadrito, G. L.; Cueto, R.; Pryor, W. A., Selecting the most appropriate synthesis of peroxynitrite. […] Peroxynitrite concentrations were determined spectrophotometrically at 302 nm (ε302=1670 L mol^−1 cm^−1). […] In this manner, the concentration of peroxynitrite was determined to be 95 mM. […] Nitrite and nitrate anions were detected and quantified by measuring the absorbance decrease (indirect UV detection) at 310 nm. […] Concentrations of hydrogen peroxide in the peroxynitrite before and after treatment with MnO2 were measured by PeroXOquant Quantitative peroxide assay kit (Pierce Biotechnology), an assay based on the oxidation of Fe^2+ to Fe^3+ by H2O2 under acidic conditions. […]", "data": [{"substance": "iron(III) chloride meso-tetrakis-2(N-(N-(2-methoxyethyl)acetamido)pyridyl porphyrin [Test porphyrin]", "values": [{"measurement": "kcat", "value": "1.4e+07", "unit": "M⁻¹ s⁻¹"}]}]}
